Patent US7763615B2, “Ecteinascidin analogs for use as antitumour agents” (priority 2001, dated 2010)
Read-outs that look alike come from different tables or passages of the source.

Legend:
Test in all cases: cells
Type in all cases: cell-based
[1] = tested on: A549; details: for GI50: read-out: GI50
In short: (§1)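 For 48 hours, cells seeded at 5×10^3 per well were kept in contact with samples spanning 10 to 10^−8 μg/ml after an 18-hour attachment period. Viable biomass was then estimated colorimetrically with sulphorhodamine B at 490 nm.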

[2] = tested on: DU145; details: Homo sapiens
In short: as §1

[3] = tested on: HELA-APL; details: for GI50 / CC50: Homo sapiens
In short: as §1

[4] = tested on: HELA; details: for GI50 / CC50: Homo sapiens
In short: as §1

[5] = tested on: HT29
In short: as §1

[6] = tested on: IGROV-ET; details: Homo sapiens
In short: as §1

[7] = tested on: IGROV; details: Homo sapiens
In short: as §1

[8] = tested on: K562; details: Homo sapiens
In short: as §1

[9] = tested on: LNCAP; details: Homo sapiens
In short: as §1

[10] = tested on: LOVO-DOX; details: Homo sapiens
In short: as §1

[11] = tested on: LOVO; details: Homo sapiens
In short: as §1

[12] = tested on: MEL-28; details: Homo sapiens
In short: as §1

[13] = tested on: PANC-1; details: Homo sapiens
In short: as §1

[14] = tested on: SK-BR3; details: Homo sapiens
In short: as §1

[15] = DU-145, 48 h, DU145, 48 hours exposure, SRB
[16] = HELA-APL, 48 hours exposure, SRB
[17] = 48 h, IGROV-ET, 48 hours exposure, SRB
[18] = K562, 48 h, K562, 48 hours exposure, SRB
[19] = LNCaP, 48 h, 48 hours exposure, SRB
[20] = 48 h, LOVO-DOX, 48 hours exposure, SRB
[21] = LoVo, 48 h, 48 hours exposure, SRB
[22] = SK-MEL-28, 48 h, MEL-28, 48 hours exposure, SRB
[23] = PANC-1, 48 h, PANC-1, 48 hours exposure, SRB
[24] = SK-BR-3, 48 h, SK-BR3, 48 hours exposure, SRB
[25] = Homo sapiens, HT-29, 48 h, HT29, 48 hours exposure, SRB

Structure (SMILES): COc1c(C)cc2c(c1O)[C@@H]1C3[C@@H]4SC[C@]5(C(=O)COC[C@@H](c6c7c(c(C)c(OC(C)=O)c64)OCO7)N3[C@@H](C#N)[C@H](C2)N1C)c1[nH]c2ccccc2c1CCN5C (stereo partly drawn) [Compound 14]
- TGI ([1]; A549, 48 hours exposure, SRB): 8.25E−07 Molar
- GI50 ([1]; A549, 48 hours exposure, SRB): 264 nM
- CC50 ([1]; A549, 48 hours exposure, SRB, read-out: LC50 (the source's name)): 6.86 µM
- GI50 [2, 15]: 94.6 nM
- IC (TGI) [2, 15]: 1.39 µM
- CC50 ([2]; DU-145, DU145, 48 hours exposure, SRB, read-out: LC50 (the source's name)): 12.9 µM
- TGI [3, 16]: 4.88E−07 Molar
- GI50 ([3]; 48 h): 243 nM
- CC50 ([3]; HELA-APL, 48 hours exposure, SRB, read-out: LC50 (the source's name)): 980 nM
- TGI ([4]; HELA, 48 hours exposure, SRB): 3.10E−07 Molar
- GI50 ([4]; HELA, 48 hours exposure, SRB): 114 nM
- CC50 ([4]; HELA, 48 hours exposure, SRB, read-out: LC50 (the source's name)): 810 nM
- GI50 ([5]; HT29, 48 hours exposure, SRB): 418 nM
- TGI ([5]; HT29, 48 hours exposure, SRB): 1.59E−06 Molar
- CC50 ([5]; HT29, 48 hours exposure, SRB, read-out: LC50 (the source's name)): 12.9 µM
- GI50 [6, 17]: 569 nM
- IC (TGI) [6, 17]: 1.3 µM
- CC50 ([6]; IGROV-ET, 48 hours exposure, SRB, read-out: LC50 (the source's name)): 12.9 µM
- GI50 ([7]; 48 h, 48 hours exposure, SRB): 226 nM
- IC (TGI) ([7]; 48 h, 48 hours exposure, SRB): 0.744 µM
- CC50 ([7]; 48 hours exposure, SRB, read-out: LC50 (the source's name)): 5.14 µM
- GI50 [8, 18]: 44.7 nM
- IC (TGI) [8, 18]: 0.174 µM
- CC50 ([8]; K562, 48 hours exposure, SRB, read-out: LC50 (the source's name)): 1290 nM
- GI50 [9, 19]: 61.2 nM
- IC (TGI) [9, 19]: 0.177 µM
- CC50 ([9]; LNCAP, 48 hours exposure, SRB, read-out: LC50 (the source's name)): 535 nM
- GI50 [10, 20]: 584 nM
- IC (TGI) [10, 20]: 3.84 µM
- CC50 ([10]; LOVO-DOX, 48 hours exposure, SRB, read-out: LC50 (the source's name)): 12.9 µM
- GI50 [11, 21]: 141 nM
- IC (TGI) [11, 21]: 0.393 µM
- CC50 ([11]; LOVO, 48 hours exposure, SRB, read-out: LC50 (the source's name)): 1100 nM
- GI50 [12, 22]: 198 nM
- IC (TGI) [12, 22]: 0.519 µM
- CC50 ([12]; SK-MEL-28, MEL-28, 48 hours exposure, SRB, read-out: LC50 (the source's name)): 2370 nM
- GI50 [13, 23]: 276 nM
- IC (TGI) [13, 23]: 0.825 µM
- CC50 ([13]; PANC-1, 48 hours exposure, SRB, read-out: LC50 (the source's name)): 12.9 µM
- GI50 [14, 24]: 217 nM
- IC (TGI) [14, 24]: 0.537 µM
- CC50 ([14]; SK-BR-3, SK-BR3, 48 hours exposure, SRB, read-out: LC50 (the source's name)): 1620 nM

Structure (SMILES): COc1c(C)cc2c(c1O)[C@@H]1C3[C@@H]4SC[C@]5(NCCc6c5[nH]c5ccccc65)C(=O)COC[C@@H](c5c6c(c(C)c(OC(=O)C(F)(F)C(F)(F)C(F)(F)F)c54)OCO6)N3[C@@H](C#N)[C@H](C2)N1C (stereo partly drawn) [Compound 51]
- GI50 ([1]; Homo sapiens, A549, 48 h, A549, 48 hours exposure, SRB): 26.7 nM
- IC (TGI) ([1]; Homo sapiens, A549, 48 h, A549, 48 hours exposure, SRB, read-out: TGI): 0.0611 µM
- CC50 ([1]; Homo sapiens, A549, 48 h, read-out: LC50, A549, 48 hours exposure, SRB): 1.29 µM
- GI50 [2, 15]: 48.3 nM
- IC (TGI) [2, 15]: 0.323 µM
- CC50 ([2]; DU-145, 48 h, read-out: LC50): 11.2 µM
- TGI [3, 16]: 4.97E−08 Molar
- GI50 ([3]; 48 h): 29.1 nM
- CC50 ([3]; 48 h, read-out: LC50): 84.6 nM
- TGI ([4]; HELA, 48 hours exposure, SRB): 4.85E−08 Molar
- CC50 ([4]; HeLa, 48 h, read-out: LC50): 98 nM
- GI50 ([4]; HELA, 48 hours exposure, SRB): 24 nM
- GI50 [5, 25]: 38.2 nM
- IC (TGI) [5, 25]: 1.31 µM
- CC50 ([5]; Homo sapiens, HT-29, 48 h, read-out: LC50, HT29, 48 hours exposure, SRB): 11.1 µM
- GI50 [6, 17]: 263 nM
- IC (TGI) [6, 17]: 7.47 µM
- CC50 ([6]; 48 h, read-out: LC50): 11.2 µM
- GI50 ([7]; 48 h, 48 hours exposure, SRB): 32.3 nM
- IC (TGI) ([7]; 48 h, 48 hours exposure, SRB): 0.0633 µM
- CC50 ([7]; 48 h, read-out: LC50): 3.55 µM
- GI50 [8, 18]: 16.5 nM
- IC (TGI) [8, 18]: 0.0462 µM
- CC50 ([8]; K562, 48 h, read-out: LC50): 114 nM
- GI50 [9, 19]: 13.1 nM
- IC (TGI) [9, 19]: 0.027 µM
- CC50 ([9]; LNCaP, 48 h, read-out: LC50): 54.8 nM
- GI50 [10, 20]: 381 nM
- IC (TGI) [10, 20]: 3.09 µM
- CC50 ([10]; 48 h, read-out: LC50): 11.2 µM
- GI50 [11, 21]: 21.1 nM
- IC (TGI) [11, 21]: 0.0388 µM
- CC50 ([11]; LoVo, 48 h, read-out: LC50): 71 nM
- GI50 [12, 22]: 28.4 nM
- IC (TGI) [12, 22]: 0.0503 µM
- CC50 ([12]; SK-MEL-28, 48 h, read-out: LC50): 89.3 nM
- GI50 [13, 23]: 41.9 nM
- IC (TGI) [13, 23]: 0.133 µM
- CC50 ([13]; PANC-1, 48 h, read-out: LC50): 2 µM
- GI50 [14, 24]: 39.8 nM
- IC (TGI) [14, 24]: 0.0993 µM
- CC50 ([14]; SK-BR-3, 48 h, read-out: LC50): 3110 nM
